Earlier results, collected in patent US20260216122A1, “PHARMACEUTICAL COMPOSITION COMPRISING ENAVOGLIFLOZIN AND METFORMIN” (DAEWOONG PHARMACEUTICAL CO., LTD., priority 2022, published 2026).
Like-named read-outs stand apart in the source and are kept apart here.

Tmax (enavogliflozin) | Tmax (metformin, administered after a meal) | Tmax (metformin, administered before a meal) | SMILES
approximately 1 hour | – | – | OC[C@H]1O[C@@H](c2cc(Cc3ccc(C4CC4)cc3)c(Cl)c3c2CCO3)[C@H](O)[C@@H](O)[C@@H]1O [enavogliflozin, (2S,3R,4R,5S,6R)-2-(7-chloro-6-(4-cyclopropylbenzyl)-2,3-dihydrobenzofuran-4-yl)-6-(hydroxymethyl)tetrahydro-2H-pyran-3,4,5-triol]
– | approximately 6 hours | approximately 4 hours | CN(C)C(=N)N=C(N)N [Metformin]
